Assay results taken from the NIST ThermoML archive (doi:10.1016/j.jct.2012.01.002).
Values joined by “and” are separate entries in the source; they are usually repeats but may differ in a detail not shown here. Identical values can stand only once.

Columns and labels:
[1] = 101.33 kPa, Liquid, Vibrating tube method
[2] = xn = mol fraction of the nth substance listed; details: 101 kPa, Liquid, Vibrating tube method

CCCCCCCC[N+](C)(CCCCCCCC)CCCCCCCC.O=S(=O)([N-]S(=O)(=O)C(F)(F)F)C(F)(F)F
[1]
Details	mass density [kg/m3]
298.15 K	1106.9
303.15 K	1103.2
313.15 K	1095.7

CCCCCCCC[N+](C)(CCCCCCCC)CCCCCCCC.O=S(=O)([N-]S(=O)(=O)C(F)(F)F)C(F)(F)F + CC(C)O
mass density [kg/m3], [2]
Details	x1 = 0.053	x1 = 0.1	x1 = 0.2045	x1 = 0.2841	x1 = 0.3934	x1 = 0.4824	x1 = 0.5896	x1 = 0.7066	x1 = 0.7967	x1 = 0.896
298.15 K	876.9	932.6	1004.9	1033.8	1056.2	1067.6	1078.9	1089	1095.2	1100.5
303.15 K	873	928.9	1001.5	1030.3	1052.6	1063.9	1075.2	1085.4	1091.6	1096.9
313.15 K	865.1	921.3	994.7	1023.3	1045.1	1056.6	1068.1	1078.3	1084.4	1089.5

CCCCCCCC[N+](C)(CCCCCCCC)CCCCCCCC.O=S(=O)([N-]S(=O)(=O)C(F)(F)F)C(F)(F)F + CCC(C)O
mass density [kg/m3], [2]
Details	x1 = 0.0654	x1 = 0.1397	x1 = 0.2623	x1 = 0.3282	x1 = 0.4054	x1 = 0.5045	x1 = 0.6051	x1 = 0.7046	x1 = 0.808	x1 = 0.9067
298.15 K	894.2	956.2	1013.8	1033.4	1050.6	1066.7	1078.5	1087.3	1094.6	1100.8
303.15 K	890.3	952.7	1010.2	1029.7	1046.9	1063	1074.8	1083.7	1091	1097.2
313.15 K	882.6	945.3	1003.1	1022.5	1039.7	1055.7	1067.6	1076.5	1083.9	1090

CCCCCCCC[N+](C)(CCCCCCCC)CCCCCCCC.O=S(=O)([N-]S(=O)(=O)C(F)(F)F)C(F)(F)F + CCCCO
mass density [kg/m3], [2]
Details	x1 = 0.0654	x1 = 0.1421	x1 = 0.2623	x1 = 0.3284	x1 = 0.4437	x1 = 0.5343	x1 = 0.6385	x1 = 0.7397	x1 = 0.8432	x1 = 0.9195
298.15 K	898.1	962	1018	1037.3	1060.4	1072.8	1083.4	1091	1097.9	1102.1
303.15 K	894.3	958.6	1014.6	1033.9	1056.8	1069.1	1079.8	1087.4	1094.2	1098.6
313.15 K	887.2	951.8	1007.6	1026.9	1049.7	1062.1	1072.7	1080.5	1087.2	1091.6

CCCCCCCC[N+](C)(CCCCCCCC)CCCCCCCC.O=S(=O)([N-]S(=O)(=O)C(F)(F)F)C(F)(F)F + CCOC(C)=O
mass density, [2]
Details	x1 = 0.1167	x1 = 0.2291	x1 = 0.4417	x1 = 0.5433	x1 = 0.7037	x1 = 0.7993	x1 = 0.9209
298.15 K	848.1 kg/m3 and 989.9 kg/m3	1034.5 kg/m3	1074.7 kg/m3	1085.4 kg/m3	1096.7 kg/m3	1101.3 kg/m3	1105.4 kg/m3
303.15 K	984.9 kg/m3	1029.5 kg/m3	1069.6 kg/m3	1080.3 kg/m3	1091.5 kg/m3	1096.2 kg/m3	1100.5 kg/m3
313.15 K	974.9 kg/m3	1020.9 kg/m3	1062.5 kg/m3	1073.4 kg/m3	1085 kg/m3	1089.6 kg/m3	1062.5 kg/m3 and 1094.1 kg/m3

CCC(C)O (centres undefined) [butan-2-ol] + CCOC(C)=O
mass density [kg/m3], [2]
Details	298.15 K	303.15 K	313.15 K
x1 = 0.0603	888.5	882.5	870.2
x1 = 0.1109	883.2	877.6	865.6
x1 = 0.1511	878.9	873.2	861.4
x1 = 0.1998	873.8	868.6	857.1
x1 = 0.2502	868.8	863.5	852.5
x1 = 0.302	863.6	858.4	847.5
x1 = 0.3489	858.9	853.9	843.2
x1 = 0.3988	854.1	849.2	838.7
x1 = 0.4506	849.4	844.4	834.3
x1 = 0.5011	844.6	839.9	829.9
x1 = 0.5631	839	834.3	824.5
x1 = 0.601	835.6	830.9	821.2
x1 = 0.6501	831.1	826.8	817.3
x1 = 0.7032	826.5	822.4	812.9
x1 = 0.752	822.5	818.3	808.9
x1 = 0.8012	818.4	814	805.1
x1 = 0.8498	814.6	810.1	801.4
x1 = 0.9028	810.3	805.8	797.4
x1 = 0.9519	806.7	802.4	794.4

CCOC(C)=O [ethyl acetate] + CCCCO
mass density [kg/m3], [2]
Details	298.15 K	303.15 K	313.15 K
x2 = 0.0904	886.5	880.4	869.6
x2 = 0.1337	882.3	876.8	866
x2 = 0.2525	871.5	866.7	856.6
x2 = 0.3723	860.7	856.6	846.8
x2 = 0.4807	851	847.5	838
x2 = 0.5955	840.9	838	828.8
x2 = 0.7032	831.5	828.8	820.1
x2 = 0.8009	823	820.6	812.3
x2 = 0.8916	815.1	813	805
x2 = 0.9641	808.6	806.7	799.4
x2 = 0.9795	807.3	805.3	798.1
